One compound from paper PMC7895462 (Neurochemical research, 2017) can be followed below.

Data set [1] concerns MES-induced seizures. The data set is described as follows: Maximal electroshock. It is filed as in vivo. A general note: In the maximal electroshock model the usual endpoint is tonic extension of the hind limbs.
Data set [2] concerns MES-induced seizures. In words: Maximal electroshock. It is filed as in vivo. This is another data set of the same source.
The test system of data set [3] is psychomotor seizures induced by 6 Hz 44 mA corneal stimulus. In words: 6 Hz 44 mA mouse test. It is filed as in vivo. As to conditions: 6 Hz 44 mA.
Data set [4] can be described thus: Open field activity monitor of rats. The class given is in vivo. As to conditions: rat; i.p.; 45 and 60 mg/kg; 10 min; vs vehicle.
For data set [5], the system named is 60 Hz corneal kindled seizures.
Where [6] appears, read: i.p., 0.5 and 2 h, default doses 30, 100, 300 mg/kg.
The mark [7] stands for this setting: p.o., 0.5 and 2 h, default doses 30, 100, 300 mg/kg.
The mark [8] stands for this setting: 30 mg/kg (n = 2 mice) and 40 mg/kg (n = 1 mouse).

Molecules are shown by their SMILES. Where only a bound is given, the exact number is not on record here.

On to `Clc1cccc(N2CCNCC2)c1` [m-CPP, meta-chlorophenylpiperazine], for which, in the data set “Minimal motor impairment” (i.p.), the “Rat I.P. identification TOX” value is reported as “−” and the “Rat I.P. quantification TOX (TD50)” value was below 10 mg/kg. Further, the “Rat P.O. identification TOX” value in “Minimal motor impairment” (p.o.) is on record as “−”. For the same compound, the “Mouse I.P identification MES” value in the data set with MES-induced seizures [1] (setting [6]) is on record as “−”. In the data set on MES-induced seizures [1] (i.p., at time of peak effect), the “Mouse I.P. quantification MES (ED50)” value was above 60 mg/kg. For the same compound, in the data set with MES-induced seizures [1] (mouse, i.p.), the “protective index (PI), i.p., MES test” value is “less than 1.0”. In the data set with MES-induced seizures [1] (setting [7]), the “Mouse P.O. identification MES” value is reported as “−”. For the same compound, the “mice protected in the MES test” value with MES-induced seizures [1] (screening, at 10 and 30 mg/kg) was “one out of four”. For the same compound, in the data set with MES-induced seizures [2] (i.p.), the “Rat I.P. identification MES” value is “+” and the “Rat I.P. quantification MES (ED50)” value came to 37.1 mg/kg. Besides, the “Rat P.O. identification MES” value with MES-induced seizures [2] (p.o.) was “+”. In addition, the “Mouse I.P identification 44 mA” value in data set [3] (setting [6]) was “−”. In addition, the “Mouse I.P. quantification 44 mA (ED50)” value in data set [3] (i.p., at time of peak effect) is given as above 55 mg/kg. For the same compound, the “Mouse P.O. identification 44 mA” value in data set [3] (setting [7]) is reported as “−”. Besides, in data set [4], the “total distance travelled in the open field” value is on record as “significant, dose-dependent reduction”. For the same compound, the “protected in the corneal kindled mouse” value in data set [5] (20 mg/kg, i.p., 15 min prior to testing) is 0/8. Further, in data set [5] (setting [8]), the “protection in the corneal kindled mouse” value is on record as “lack of protection”. In addition, the “adverse side effects in corneal kindled mice” value in data set [5] (at the highest doses tested) is “severe adverse side effects, including splaying, tremors, and mortality following seizure”. Besides, the “Mouse CKM (I.P.) ID” value in data set [5] (i.p.) is “−”. Also, the “MMI in corneal kindled mice” value under setting [8] is on record as “significant MMI in all animals tested”. In addition, under “corneal kindled mice, 20 mg/kg, i.p., 15 min”, the “mice with significant MMI on the rotarod assay” value is on record as 3/8. Under setting [6], the “Mouse I.P identification TOX” value is on record as “+”. The “Mouse I.P. quantification TOX (TD50)” value (i.p., rotorod) came out at 52.6 mg/kg. Besides, the “Mouse P.O. identification TOX” value under setting [7] was “−”.
